Key:
V. fischeri = V. fischeri luminescence assay (killing); assay type: cell-based, Vibrio fischeri; details: for killing by biocide with varied detergent: 1 mM NH3, 0.5% EtOH; for decrease in luminescence: 2 mM; for killing by biocide with varied alcohol: 1 mM NH3, 0.05 mM CTAB; for effect of ethanol on V. fischeri luminescence: 1% ethanol alone
Protocol: V. fischeri was grown overnight until the culture reached log phase and were brightly luminescent. Since bacterial luminescence is an ATP driven event, light emission is directly related to the metabolism and energy charge state of the organism. […] Samples at given concentrations were added to V. fischeri in a 24 well plate. A small amount was placed in a 96 well plate, agitated, and the luminescence was read in a TECAN well plate reader. For all figures, the total time period that V. fischeri was exposed to each biocide or component was between five and fifteen minutes. […] The right side bars represent a final pH of 9. Low readings indicate killing. […] The purpose of this component is to fluidize the cell membrane to collapse the pH gradient.

[1] = Effectiveness or lethality of biocide composition with substituted components (test not described)
[2] = 0.05 mM detergent, pH 9.0 (FIG. 6)

Row | Compound | killing by biocide with varied detergent (V. fischeri; [2]) | killing by biocide with varied detergent (V. fischeri; detergent raised to 1 mM, pH 9) | killing by biocide with varied alcohol (V. fischeri; 0.5% alcohol, pH 9.0 (FIG. 7)) | killing by biocide with varied alcohol (V. fischeri; alcohol raised to 1%, pH 9) | effectiveness as component in the composition and method of the invention [1] | other results
1 | CCCCCCCCCCCCCCCC[N+](C)(C)C.[Br-] [CTAB, Cetyl trimethylammonium bromide] | some degree of killing | kill effectively | – | – | – | –
2 | CCCCCCCCCCCCCCCC[N+](C)(C)C.[Cl-] [CTAC, Cetyl trimetylammonium chloride] | some degree of killing | kill effectively | – | – | – | –
3 | CCCCCCCCCCCCCCCCN [HDA, Hexadecylamine] | – | – | – | – | – | decrease in luminescence (V. fischeri; pH 7.5): 11%; decrease in luminescence (V. fischeri; pH 9): 29%; effect of HDA on V. fischeri luminescence (V. fischeri; HDA alone 0-2 mM, pH 7.5 (FIG. 2)): little to no effect; effect of HDA on V. fischeri luminescence (V. fischeri; HDA alone, higher concentrations (up to 2 mM), pH 9 (FIG. 2)): slight effect
4 | CCCCCCCCCCCCOS(=O)(=O)[O-].[Na+] [SDS, Sodium dodecyl sulfate] | some degree of killing | kill effectively | – | – | – | –
5 | CCCCCCCCCCCCCC[N+](C)(C)C.[Br-] [TTAB, Tetradecyl trimethyl ammonium bromide] | some degree of killing | kill effectively | – | – | – | –
6 | CCCCCCCCCCCCCC[N+](C)(C)C.[Cl-] [TTAC, Tetradecyl trimethyl ammonium chloride] | some degree of killing | kill effectively | – | – | – | –
7 | N [ammonia] | – | – | – | – | – | effect of ammonia on V. fischeri luminescence (V. fischeri; ammonia alone, 50 mM or lower, pH 7 or 9, versus pH adjusted H2O control (FIG. 3)): no difference from the control
8 | Nc1ccccc1 [aniline] | – | – | – | – | – | lethality of biocide with aniline substituted for HAD ([1]; aniline as second hydroxophore component): very lethal
9 | OCc1ccccc1 [benzyl alcohol] | – | – | some degree of killing | kill effectively | effective | –
10 | CCO [ethanol] | – | – | some degree of killing | kill effectively | – | effect of ethanol on V. fischeri luminescence (V. fischeri; final pH 7, 5-15 min exposure (FIG. 1)): damage; effect of ethanol on V. fischeri luminescence (V. fischeri; final pH 9, 5-15 min exposure (FIG. 1)): damage; higher luminescence reading at pH 9 than same concentration at pH 7 (V. fischeri; 3% ethanol, pH 9 versus pH 7): 40%
11 | CO [methanol] | – | – | some degree of killing | kill effectively | effective | –
12 | CCCO [propanol] | – | – | some degree of killing | kill effectively | effective | –
13 | butanol | – | – | some degree of killing | kill effectively | effective | –

Source: patent US20110008469A1, “ANTIMICROBIAL COMPOSITION AND METHODS AND APPARATUS FOR USE THEREOF” (FLORIDA GULF COAST UNIVERSITY, priority 2009, published 2011)
